Tests used:
UGT1A8 = target: T1, UGT1A8 (Homo sapiens, UniProt Q9HAW9); test: Inhibition of recombinant UGT1A8 activity (4-MU glucuronidation)
T1 sequence (Q9HAW9 26-530): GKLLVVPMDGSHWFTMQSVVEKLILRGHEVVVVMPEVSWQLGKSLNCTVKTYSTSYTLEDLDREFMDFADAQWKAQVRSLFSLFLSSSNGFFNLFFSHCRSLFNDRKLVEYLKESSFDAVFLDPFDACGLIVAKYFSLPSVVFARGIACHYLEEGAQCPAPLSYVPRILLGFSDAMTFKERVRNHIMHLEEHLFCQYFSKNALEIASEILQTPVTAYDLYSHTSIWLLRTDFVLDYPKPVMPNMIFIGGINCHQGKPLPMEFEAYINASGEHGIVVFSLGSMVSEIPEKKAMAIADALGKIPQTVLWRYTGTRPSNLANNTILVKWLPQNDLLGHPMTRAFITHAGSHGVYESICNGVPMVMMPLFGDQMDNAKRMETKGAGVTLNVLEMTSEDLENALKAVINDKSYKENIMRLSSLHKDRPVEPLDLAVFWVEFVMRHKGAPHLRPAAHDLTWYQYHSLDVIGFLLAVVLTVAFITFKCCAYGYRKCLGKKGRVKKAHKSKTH
Description: (§1) A panel of recombinant human UGT supersomes (UGT1A1, UGT1A3, UGT1A4, UGT1A6, UGT1A7, UGT1A8, UGT1A9, UGT1A10, UGT2B4, UGT2B7, UGT2B15, and UGT2B17) expressed in baculovirus-infected insect cells were purchased from BD Gentest Corp. (Woburn, MA, USA).
(§2) 4-MU, a nonselective substrate of UGTs, was used as probe substrate for all UGTs except UGT1A4. Incubations with each individual enzyme were conducted using conditions previously described. There was a 5 min preincubation step at 37°C before the reaction was started by addition of UDPGA. The incubation mixtures were then centrifuged at 20,500 ×g for 15 min to obtain the supernatant. Aliquots (20 μL) were then analyzed by HPLC. The HPLC system (SHIMADZU, Kyoto, Japan) consisted of an SCL-10A system controller, two LC-10AT pumps, a SIL-10A auto injector, and a SPD-10AVP UV detector. Chromatographic separation was achieved using a Kromasil ODS column (4.6 × 150 mm I.D., 5 μm particle size) at a flow rate of 1 mL/min and UV detection at 316 nm. The mobile phase consisted of 10 mM KH2PO4, pH 2.7 (A) and acetonitrile (B). The following gradient was applied at a flow rate of 1 mL/min: 0–4 min 80% A and 20% B, 4.1–8 min 50% A and 50% B, 8.1–12 min, 30% A and 70% B. All experiments were performed in two independent experiments in duplicate.
A typical incubation mixture contained recombinant human UGTs, 5 mM MgCl2, 5 mM UDPGA, 50 μg/mg protein alamethicin, 50 mM Tris-HCl buffer (pH 7.4), and various probe substrates of UGTs in the absence or presence of different concentrations of inhibitors. […] The final concentration of DMSO in the incubation system was 1% (v/v). […]
Inhibition data from experiments were graphically represented by Dixon plots. K i values were calculated by nonlinear regression using the equations for competitive inhibition (1), noncompetitive inhibition (2), or mixed inhibition (3), [22] […] The type of inhibition was determined from the enzyme inhibition models. Goodness of fit to kinetic and inhibition models was assessed from the F statistic, r ^2 values, parameter standard error estimates, and 95% confidence intervals. […]

[1] = Calculation of possible maximum concentrations in gut lumen; set-up: species or system human; details: calculated, after a single oral administration of Epimedium pubescens decoction
Text: The reported V L was 1.65 L/70 kg. […] Here we arbitrarily assumed the ratio in rat equaled to that in human blood, and the values of their oral bioavailability were consistent.

UGT1A7 = target: T2, UGT1A7 (Homo sapiens, UniProt Q9HAW7); test: Inhibition of recombinant UGT1A7 activity (4-MU glucuronidation)
T2 sequence (Q9HAW7 26-530): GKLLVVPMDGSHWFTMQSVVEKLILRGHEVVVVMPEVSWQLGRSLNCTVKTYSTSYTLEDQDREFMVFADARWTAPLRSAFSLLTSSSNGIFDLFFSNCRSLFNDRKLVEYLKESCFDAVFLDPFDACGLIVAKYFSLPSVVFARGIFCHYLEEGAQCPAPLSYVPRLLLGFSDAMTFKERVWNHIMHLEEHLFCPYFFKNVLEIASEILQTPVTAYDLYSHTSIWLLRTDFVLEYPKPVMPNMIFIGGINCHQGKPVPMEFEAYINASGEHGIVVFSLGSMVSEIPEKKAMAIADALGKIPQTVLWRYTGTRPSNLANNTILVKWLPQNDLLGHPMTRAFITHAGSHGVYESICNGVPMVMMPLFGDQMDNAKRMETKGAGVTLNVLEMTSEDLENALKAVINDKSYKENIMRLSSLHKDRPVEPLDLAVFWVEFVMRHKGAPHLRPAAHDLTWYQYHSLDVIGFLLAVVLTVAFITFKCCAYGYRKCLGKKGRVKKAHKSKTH
Description: as §1, §2
A typical incubation mixture contained recombinant human UGTs, 5 mM MgCl2, 5 mM UDPGA, 50 μg/mg protein alamethicin, 50 mM Tris-HCl buffer (pH 7.4), and various probe substrates of UGTs in the absence or presence of different concentrations of inhibitors. […] The final concentration of DMSO in the incubation system was 1% (v/v). […] Known UGT inhibitors were used as positive controls: diclofenac for UGT1A1, UGT1A6, UGT1A7, and UGT1A9; androsterone for UGT1A3, UGT2B7, and UGT2B15, phenylbutazone for UGT1A8 and UGT1A10, and hecogenin for UGT1A4, respectively. There is no positive control reported available for UGT2B4 and UGT2B17. The negative controls are the incubation without UDPGA. […] The final concentration of DMSO in the incubation system was 1% (v/v). […] There was a 5 min preincubation step at 37°C before the reaction was started by the addition of UDPGA. Incubation times were 120 min for UGT1A1, UGT1A10, UGT2B4, UGT2B15, and UGT2B17, 75 min for UGT1A3, and 30 min for UGT1A4, UGT1A6, UGT1A7, UGT1A8, and UGT1A9. The reactions were quenched by adding 100 μL acetonitrile and internal standard. The incubation mixtures were then centrifuged at 20,500 ×g for 15 min to obtain the supernatant. An aliquot of the supernatant was used for HPLC analysis as described above. All experiments were performed in two independent experiments in duplicate.
Inhibition data from experiments were graphically represented by Dixon plots. K i values were calculated by nonlinear regression using the equations for competitive inhibition (1), noncompetitive inhibition (2), or mixed inhibition (3), [22] (1) v =VmaxS/Km(1+(I/Ki))+S, (2) v =VmaxS/(Km+S)(1+(I/Ki)), (3) v =VmaxS/Km (1+(I/Ki))+S(1+(I/αKi)), where v is the velocity of the reaction; S and I are the substrate and inhibitor concentrations, respectively; K i is the inhibition constant describing the affinity of the inhibitor for the enzyme; K m is the substrate concentration at half of the maximum velocity (V max) of the reaction; α reflects the effect of inhibitor on the affinity of the enzyme for its substrate. The type of inhibition was determined from the enzyme inhibition models. Goodness of fit to kinetic and inhibition models was assessed from the F statistic, r ^2 values, parameter standard error estimates, and 95% confidence intervals. Kinetic constants are reported as the mean value ± standard error of the parameter estimate.

Question: With COc1ccc(-c2oc3c(CC=C(C)C)c(O[C@@H]4O[C@H](CO)[C@@H](O)[C@H](O)[C@H]4O)cc(O)c3c(=O)c2O[C@@H]2O[C@@H](C)[C@H](O)[C@@H](O)[C@H]2O)cc1 [Icariin] as the molecule, how does the IC50 (UGT1A8) read?
Answer: The IC50 was over 100 µM.

Question: And the “Possible maximum concentration in human gut lumen” value [1]?
Answer: Its value is “about 9.9 μM”.

Question: What about the IC50 (UGT1A7) of the same molecule?
Answer: Its IC50 is over 100 µM.

Question: Which results are given for COc1ccc(-c2oc3c(CC=C(C)C)c(O[C@@H]4O[C@H](CO)[C@@H](O)[C@H](O)[C@H]4O)cc(O)c3c(=O)c2O)cc1 [Icariside I]?
Answer: IC50 (UGT1A8): > 100 µM; Possible maximum concentration in human gut lumen [1]: ~0.2 µM; IC50 (UGT1A7): > 100 µM

Question: Which IC50 (UGT1A8) does the source give for COc1ccc(-c2oc3c(CC=C(C)C)c(O)cc(O)c3c(=O)c2O)cc1 [Icaritin] here?
Answer: Its IC50 is over 100 µM.

Question: What about the “Possible maximum concentration in human gut lumen” value [1] of the same molecule?
Answer: The value was about 3.8 µM.

Question: What about the IC50 (UGT1A7) of the same molecule?
Answer: The IC50 was 0.3 µM.

Question: What about the Ki (UGT1A7) of the same molecule?
Answer: The Ki was 0.7 ± 0.2 µM.

Question: And the “Inhibition type against UGT1A7” value (UGT1A7; recombinant UGT1A7)?
Answer: Its value is “mixed”.

Question: And the “α of mixed inhibition against UGT1A7” value (UGT1A7; recombinant UGT1A7, mixed inhibition model)?
Answer: Its value is 2.7.

Source: paper PMC3479967 (Evidence-based Complementary and Alternative Medicine : eCAM, 2012)
